Reference: ChEMBL document CHEMBL6096715, “Novel TYK2 Inhibitors for Treating Autoimmune and Inflammatory Diseases” (ACS Med Chem Lett, 2025)

Biological target: Non-receptor tyrosine-protein kinase TYK2 (Homo sapiens, UniProt P29597)
Sequence (P29597 whole entry): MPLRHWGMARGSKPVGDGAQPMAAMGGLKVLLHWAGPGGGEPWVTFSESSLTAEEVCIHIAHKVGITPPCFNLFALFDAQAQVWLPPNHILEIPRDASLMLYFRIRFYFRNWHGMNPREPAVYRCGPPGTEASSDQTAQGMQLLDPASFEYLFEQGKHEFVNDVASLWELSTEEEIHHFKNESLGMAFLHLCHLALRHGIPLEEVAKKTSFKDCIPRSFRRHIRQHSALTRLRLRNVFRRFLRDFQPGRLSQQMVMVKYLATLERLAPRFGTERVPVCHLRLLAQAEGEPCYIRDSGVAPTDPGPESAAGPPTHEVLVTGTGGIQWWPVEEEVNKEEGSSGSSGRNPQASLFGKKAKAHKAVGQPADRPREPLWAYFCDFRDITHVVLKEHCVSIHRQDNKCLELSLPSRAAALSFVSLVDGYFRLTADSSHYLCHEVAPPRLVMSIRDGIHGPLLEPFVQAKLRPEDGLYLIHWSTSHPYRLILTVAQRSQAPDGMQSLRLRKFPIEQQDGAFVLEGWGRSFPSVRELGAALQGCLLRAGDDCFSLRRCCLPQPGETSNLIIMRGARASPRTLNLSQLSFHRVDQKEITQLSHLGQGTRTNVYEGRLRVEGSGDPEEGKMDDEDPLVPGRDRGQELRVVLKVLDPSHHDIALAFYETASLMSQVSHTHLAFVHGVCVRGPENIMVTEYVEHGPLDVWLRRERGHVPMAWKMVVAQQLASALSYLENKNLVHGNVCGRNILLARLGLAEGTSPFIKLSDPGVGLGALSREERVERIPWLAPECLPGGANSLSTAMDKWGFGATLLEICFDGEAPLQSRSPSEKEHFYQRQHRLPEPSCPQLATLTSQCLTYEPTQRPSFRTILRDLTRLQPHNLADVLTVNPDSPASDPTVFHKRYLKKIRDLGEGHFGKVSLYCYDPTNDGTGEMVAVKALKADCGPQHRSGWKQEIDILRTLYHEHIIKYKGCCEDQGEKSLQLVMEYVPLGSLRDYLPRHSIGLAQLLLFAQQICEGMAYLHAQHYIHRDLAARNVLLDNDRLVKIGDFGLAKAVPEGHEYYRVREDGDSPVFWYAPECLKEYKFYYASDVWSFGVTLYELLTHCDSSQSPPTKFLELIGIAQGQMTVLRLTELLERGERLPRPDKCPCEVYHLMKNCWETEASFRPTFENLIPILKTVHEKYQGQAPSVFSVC

With `Cn1cc(-c2cc3c(N4C[C@H]5CC[C@@H](C4)N5[C@H]4C[C@@H](C#N)C4(C)C)ccnn3c2)cn1` the IC50 was 2.33 nM.
